US8357733B2, “Processes for making silane, hydrophobated silica, silica masterbatch and rubber products” (Industrias Negromex, S.A. de C.V., priority 2008, dated 2013)

Key:
[1] = Solubility of silanes in water-isopropanol mixtures; format: physicochemical; details: for Soluble?: water-isopropanol
[2] = as above; format: physicochemical; details: for Water solubility: comparison methoxysilane vs ethoxysilane, see Table 4; for Soluble?: water-isopropanol, 96.0 % water (wt.)
Procedure: An aqueous solution of silane was prepared by charging to a vessel 4 grams of isopropanol, 0.7 grams of acetic acid and then 1.57 grams (4% by wt silica) of mercapto Propyl trimethoxysilane (Silquest A189). The mixture was then stirred vigorously at room temperature while 96 grams of water was slowly added. The mixture was then stirred for a further 15 minutes until the solution cleared.
The following experiments were conducted to examine the solubility of various silane coupling agents.

Structure (SMILES): CCO[Si](CCCS)(OCC)OCC [MPTES, mercaptopropyltriethoxysilane]
- Soluble? ([1]; 63.2 % water (wt.), pH 3.5-4.0): insoluble and No
- Water solubility [2]: insoluble

Structure (SMILES): CO[Si](CCCS)(OC)OC [MPTMS, mercaptopropyl trimethoxysilane]
- Soluble? ([1]; 63.2 % water (wt.), pH 3.5-4.0): Yes
- Water solubility [2]: soluble
- Soluble? ([2]; pH 3.5-4.0): soluble
- Soluble? ([2]; pH 3.5-4.0, listed as MPTMS (A189)): Yes

Structure (SMILES): CCO[Si](CCCSSCCC[Si](OCC)(OCC)OCC)(OCC)OCC [TESPD, bis-(3-triethoxysilylpropyl)-disulfide]
- Soluble? ([1]; 22.2 % water (wt.), pH 3.8): soluble and Yes
- Soluble? ([1]; 27.8 % water (wt.), pH 3.5): insoluble and No
- Solubility in the water-alcohol mixture ([2]; procedure of comparative example 1A (4 grams isopropanol, 0.7 grams acetic acid, 96 grams water), high purity TESPD): not soluble

Structure (SMILES): CO[Si](CCCSSCCC[Si](OC)(OC)OC)(OC)OC [TMSPD, bis-(3-trimethoxysilylpropyl)-disulfide]
- Solubility in 70/30 water/isopropanol mixture ([1]; TMSPD prepared using the Pletka process, no unusual precautions to purify the methanol): insoluble
- Soluble? ([2]; pH 4.1): soluble
- Soluble? ([2]; pH 4.1, listed as TMSPD (Present invention)): Yes
